Key:
[1] = molecular target: Mast/stem cell growth factor receptor Kit (Homo sapiens) (UniProt P10721); experiment: Inhibition of autoinhibited KIT (unknown origin) assessed as residual activity at 1000 nM by KINOMEscan analysis relative to control
[2] = molecular target: T1, Ephrin type-B receptor 6 (Homo sapiens) (UniProt O15197); experiment: Inhibition of EPHB6 (unknown origin) assessed as residual activity at 1000 nM by KINOMEscan analysis relative to control
T1 sequence (whole entry): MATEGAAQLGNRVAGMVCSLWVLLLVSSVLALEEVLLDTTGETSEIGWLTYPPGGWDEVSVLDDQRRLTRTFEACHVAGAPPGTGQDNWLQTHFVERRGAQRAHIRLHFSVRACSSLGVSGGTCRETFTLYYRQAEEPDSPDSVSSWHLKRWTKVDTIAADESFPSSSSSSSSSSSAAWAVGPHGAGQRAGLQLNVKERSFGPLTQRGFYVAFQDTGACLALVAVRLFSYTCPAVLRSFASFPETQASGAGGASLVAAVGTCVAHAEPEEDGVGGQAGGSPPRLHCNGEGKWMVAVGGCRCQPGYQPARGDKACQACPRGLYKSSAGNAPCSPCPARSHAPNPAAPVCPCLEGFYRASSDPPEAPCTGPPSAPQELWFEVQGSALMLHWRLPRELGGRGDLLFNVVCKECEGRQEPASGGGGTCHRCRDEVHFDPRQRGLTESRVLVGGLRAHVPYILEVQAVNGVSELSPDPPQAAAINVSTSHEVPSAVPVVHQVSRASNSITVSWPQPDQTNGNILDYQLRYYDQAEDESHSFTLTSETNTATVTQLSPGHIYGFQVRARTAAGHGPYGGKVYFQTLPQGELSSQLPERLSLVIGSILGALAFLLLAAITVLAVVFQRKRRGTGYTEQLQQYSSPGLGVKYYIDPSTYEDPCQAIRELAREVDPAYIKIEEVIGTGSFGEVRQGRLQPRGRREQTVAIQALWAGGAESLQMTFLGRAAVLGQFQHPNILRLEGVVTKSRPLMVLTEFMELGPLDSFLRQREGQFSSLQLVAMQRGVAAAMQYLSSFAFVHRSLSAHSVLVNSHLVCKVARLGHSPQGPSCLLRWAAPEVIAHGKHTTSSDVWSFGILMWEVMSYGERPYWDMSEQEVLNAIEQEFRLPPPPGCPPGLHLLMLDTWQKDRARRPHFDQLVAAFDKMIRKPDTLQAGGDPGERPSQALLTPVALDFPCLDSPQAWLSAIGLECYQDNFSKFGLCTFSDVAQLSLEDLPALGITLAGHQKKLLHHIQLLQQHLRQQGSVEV

[3] = molecular target: Leucine-rich repeat serine/threonine-protein kinase 2 (Homo sapiens) (UniProt Q5S007); experiment: Inhibition of LRRK2 (unknown origin) assessed as residual activity at 1000 nM by KINOMEscan analysis relative to control
[4] = molecular target: Mitogen-activated protein kinase 7 (Homo sapiens) (UniProt Q13164); experiment: Inhibition of ERK5 (unknown origin) assessed as residual activity at 1000 nM by KINOMEscan analysis relative to control
[5] = molecular target: 5'-AMP-activated protein kinase catalytic subunit alpha-1 (Homo sapiens) (UniProt Q13131); experiment: Inhibition of AMPK-alpha1 (unknown origin) assessed as residual activity at 1000 nM by KINOMEscan analysis relative to control
[6] = molecular target: T2, 3-phosphoinositide-dependent protein kinase 1 (Homo sapiens) (UniProt O15530); experiment: Inhibition of PDPK1 (unknown origin) assessed as residual activity at 1000 nM by KINOMEscan analysis relative to control
T2 sequence (whole entry): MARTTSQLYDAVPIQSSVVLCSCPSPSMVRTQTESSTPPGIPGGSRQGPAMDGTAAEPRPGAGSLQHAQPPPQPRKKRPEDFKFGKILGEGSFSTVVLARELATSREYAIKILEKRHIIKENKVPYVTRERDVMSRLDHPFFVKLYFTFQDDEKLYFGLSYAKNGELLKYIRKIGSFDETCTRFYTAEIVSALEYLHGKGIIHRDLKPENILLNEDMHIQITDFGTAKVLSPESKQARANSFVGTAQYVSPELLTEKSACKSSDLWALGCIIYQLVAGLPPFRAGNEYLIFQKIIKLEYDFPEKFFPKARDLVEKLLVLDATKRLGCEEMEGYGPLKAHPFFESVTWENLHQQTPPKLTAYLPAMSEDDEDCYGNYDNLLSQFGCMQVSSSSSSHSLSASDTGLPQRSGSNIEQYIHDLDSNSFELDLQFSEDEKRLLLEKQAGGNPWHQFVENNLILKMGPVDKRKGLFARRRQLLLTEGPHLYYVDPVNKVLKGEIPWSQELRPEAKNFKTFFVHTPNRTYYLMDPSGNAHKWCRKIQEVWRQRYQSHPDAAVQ

[7] = system: Phosphatidylinositol 4,5-bisphosphate 3-kinase catalytic subunit alpha isoform (Homo sapiens), P42336 [E545K]; experiment: Inhibition of PIK3CA E545K mutant (unknown origin) assessed as residual activity at 1000 nM by KINOMEscan analysis relative to control
[8] = molecular target: Serine/threonine-protein kinase mTOR (Homo sapiens) (UniProt P42345); experiment: Inhibition of MTOR (unknown origin) assessed as residual activity at 1000 nM by KINOMEscan analysis relative to control
[9] = molecular target: Tyrosine-protein kinase SYK (Homo sapiens) (UniProt P43405); experiment: Inhibition of SYK (unknown origin) assessed as residual activity at 1000 nM by KINOMEscan analysis relative to control
[10] = molecular target: RAC-alpha serine/threonine-protein kinase (Homo sapiens) (UniProt P31749); experiment: Inhibition of AKT1 (unknown origin) assessed as residual activity at 1000 nM by KINOMEscan analysis relative to control
[11] = system: Epidermal growth factor receptor (Homo sapiens), P00533 [UNDEFINED MUTATION]; experiment: Inhibition of EGFR L747-S752del/P753S mutant (unknown origin) assessed as residual activity at 1000 nM by KINOMEscan analysis relative to control
Chain of Epidermal growth factor receptor (Homo sapiens), P00533 [UNDEFINED MUTATION] (P00533 whole entry, looked up, stated change not applied): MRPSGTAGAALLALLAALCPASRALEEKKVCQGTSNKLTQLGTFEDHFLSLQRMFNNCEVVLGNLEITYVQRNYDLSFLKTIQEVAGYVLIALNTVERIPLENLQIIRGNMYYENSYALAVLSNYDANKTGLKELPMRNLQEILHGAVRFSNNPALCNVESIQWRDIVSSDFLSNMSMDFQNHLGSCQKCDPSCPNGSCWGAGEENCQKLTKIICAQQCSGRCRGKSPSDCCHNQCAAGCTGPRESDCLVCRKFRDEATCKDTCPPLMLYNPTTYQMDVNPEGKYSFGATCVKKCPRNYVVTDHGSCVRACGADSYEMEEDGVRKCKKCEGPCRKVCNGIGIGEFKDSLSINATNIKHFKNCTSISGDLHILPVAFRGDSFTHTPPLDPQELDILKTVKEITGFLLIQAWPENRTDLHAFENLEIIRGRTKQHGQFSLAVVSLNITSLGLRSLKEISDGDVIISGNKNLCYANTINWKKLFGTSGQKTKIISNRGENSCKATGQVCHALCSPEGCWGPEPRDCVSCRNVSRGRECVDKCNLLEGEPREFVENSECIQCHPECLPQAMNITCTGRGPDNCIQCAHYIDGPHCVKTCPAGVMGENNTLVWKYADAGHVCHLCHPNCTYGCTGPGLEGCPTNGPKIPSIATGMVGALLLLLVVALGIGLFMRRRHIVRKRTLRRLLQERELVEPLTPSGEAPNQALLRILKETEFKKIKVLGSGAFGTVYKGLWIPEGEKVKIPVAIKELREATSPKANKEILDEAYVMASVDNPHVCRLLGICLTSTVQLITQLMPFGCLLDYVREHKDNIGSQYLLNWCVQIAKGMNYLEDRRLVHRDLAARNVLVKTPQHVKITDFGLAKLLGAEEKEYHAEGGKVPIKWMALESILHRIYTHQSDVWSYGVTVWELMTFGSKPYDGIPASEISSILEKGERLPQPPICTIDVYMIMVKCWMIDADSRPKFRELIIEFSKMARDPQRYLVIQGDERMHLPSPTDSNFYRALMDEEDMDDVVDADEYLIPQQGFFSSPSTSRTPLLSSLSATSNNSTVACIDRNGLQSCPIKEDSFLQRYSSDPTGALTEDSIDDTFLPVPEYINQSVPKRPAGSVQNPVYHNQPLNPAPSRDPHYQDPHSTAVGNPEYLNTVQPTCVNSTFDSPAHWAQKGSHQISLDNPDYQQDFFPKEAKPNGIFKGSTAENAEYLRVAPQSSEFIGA

Chain of Phosphatidylinositol 4,5-bisphosphate 3-kinase catalytic subunit alpha isoform (Homo sapiens), P42336 [E545K] (P42336 whole entry E545K, canonical isoform): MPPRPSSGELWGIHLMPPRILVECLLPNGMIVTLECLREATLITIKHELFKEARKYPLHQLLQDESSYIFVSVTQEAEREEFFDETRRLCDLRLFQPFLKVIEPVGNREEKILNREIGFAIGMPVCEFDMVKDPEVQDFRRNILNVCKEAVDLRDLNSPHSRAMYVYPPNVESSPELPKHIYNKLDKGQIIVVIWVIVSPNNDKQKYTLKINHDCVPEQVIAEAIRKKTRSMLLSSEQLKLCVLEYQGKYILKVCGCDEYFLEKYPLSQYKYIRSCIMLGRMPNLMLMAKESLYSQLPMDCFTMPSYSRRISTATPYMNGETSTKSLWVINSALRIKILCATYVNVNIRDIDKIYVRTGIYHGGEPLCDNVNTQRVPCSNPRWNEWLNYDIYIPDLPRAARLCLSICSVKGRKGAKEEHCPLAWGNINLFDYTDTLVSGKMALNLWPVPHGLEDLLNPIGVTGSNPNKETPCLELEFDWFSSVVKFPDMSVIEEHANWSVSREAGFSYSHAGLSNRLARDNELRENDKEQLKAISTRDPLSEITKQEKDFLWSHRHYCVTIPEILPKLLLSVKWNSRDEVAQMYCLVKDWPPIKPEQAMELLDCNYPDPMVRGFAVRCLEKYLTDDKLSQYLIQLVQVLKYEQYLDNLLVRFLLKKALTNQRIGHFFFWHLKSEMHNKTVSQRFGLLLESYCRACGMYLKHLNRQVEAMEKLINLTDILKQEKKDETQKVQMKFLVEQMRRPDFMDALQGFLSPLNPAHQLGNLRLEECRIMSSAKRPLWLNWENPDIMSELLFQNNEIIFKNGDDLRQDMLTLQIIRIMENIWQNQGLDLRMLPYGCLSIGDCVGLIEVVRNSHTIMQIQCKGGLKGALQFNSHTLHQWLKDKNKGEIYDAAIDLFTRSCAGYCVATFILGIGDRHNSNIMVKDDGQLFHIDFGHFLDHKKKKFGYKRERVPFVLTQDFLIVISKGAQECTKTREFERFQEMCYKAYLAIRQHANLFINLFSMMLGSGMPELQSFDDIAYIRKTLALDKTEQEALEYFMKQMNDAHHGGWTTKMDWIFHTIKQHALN
Chain of RAC-alpha serine/threonine-protein kinase (Homo sapiens) (P31749 whole entry): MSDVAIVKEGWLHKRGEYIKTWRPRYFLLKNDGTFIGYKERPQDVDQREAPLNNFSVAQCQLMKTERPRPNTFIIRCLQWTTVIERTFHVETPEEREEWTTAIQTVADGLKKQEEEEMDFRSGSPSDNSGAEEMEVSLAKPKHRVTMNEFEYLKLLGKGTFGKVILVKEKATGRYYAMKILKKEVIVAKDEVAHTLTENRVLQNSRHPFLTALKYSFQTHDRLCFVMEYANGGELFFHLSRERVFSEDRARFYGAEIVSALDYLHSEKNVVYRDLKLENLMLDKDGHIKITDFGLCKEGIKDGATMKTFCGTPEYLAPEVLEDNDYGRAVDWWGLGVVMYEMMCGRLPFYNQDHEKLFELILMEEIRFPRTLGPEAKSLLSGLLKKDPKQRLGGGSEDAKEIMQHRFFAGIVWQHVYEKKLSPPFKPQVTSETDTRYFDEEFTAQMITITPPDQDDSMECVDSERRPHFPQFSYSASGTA
Chain of 5'-AMP-activated protein kinase catalytic subunit alpha-1 (Homo sapiens) (Q13131 whole entry, looked up): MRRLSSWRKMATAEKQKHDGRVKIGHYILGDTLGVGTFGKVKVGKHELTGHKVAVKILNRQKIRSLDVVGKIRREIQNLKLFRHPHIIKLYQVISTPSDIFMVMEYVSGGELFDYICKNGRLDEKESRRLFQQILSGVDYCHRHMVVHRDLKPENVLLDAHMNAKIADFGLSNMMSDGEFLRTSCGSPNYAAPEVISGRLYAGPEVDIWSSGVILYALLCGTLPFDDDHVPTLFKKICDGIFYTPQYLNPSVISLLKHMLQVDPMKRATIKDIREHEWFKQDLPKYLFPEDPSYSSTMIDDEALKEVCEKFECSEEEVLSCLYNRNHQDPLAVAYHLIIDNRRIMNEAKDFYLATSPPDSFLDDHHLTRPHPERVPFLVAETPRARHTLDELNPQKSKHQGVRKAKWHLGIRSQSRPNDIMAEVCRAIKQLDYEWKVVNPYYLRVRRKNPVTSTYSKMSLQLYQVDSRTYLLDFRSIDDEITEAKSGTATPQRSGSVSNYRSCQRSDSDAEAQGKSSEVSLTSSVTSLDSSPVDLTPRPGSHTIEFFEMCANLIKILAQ
Chain of Mast/stem cell growth factor receptor Kit (Homo sapiens) (P10721 whole entry): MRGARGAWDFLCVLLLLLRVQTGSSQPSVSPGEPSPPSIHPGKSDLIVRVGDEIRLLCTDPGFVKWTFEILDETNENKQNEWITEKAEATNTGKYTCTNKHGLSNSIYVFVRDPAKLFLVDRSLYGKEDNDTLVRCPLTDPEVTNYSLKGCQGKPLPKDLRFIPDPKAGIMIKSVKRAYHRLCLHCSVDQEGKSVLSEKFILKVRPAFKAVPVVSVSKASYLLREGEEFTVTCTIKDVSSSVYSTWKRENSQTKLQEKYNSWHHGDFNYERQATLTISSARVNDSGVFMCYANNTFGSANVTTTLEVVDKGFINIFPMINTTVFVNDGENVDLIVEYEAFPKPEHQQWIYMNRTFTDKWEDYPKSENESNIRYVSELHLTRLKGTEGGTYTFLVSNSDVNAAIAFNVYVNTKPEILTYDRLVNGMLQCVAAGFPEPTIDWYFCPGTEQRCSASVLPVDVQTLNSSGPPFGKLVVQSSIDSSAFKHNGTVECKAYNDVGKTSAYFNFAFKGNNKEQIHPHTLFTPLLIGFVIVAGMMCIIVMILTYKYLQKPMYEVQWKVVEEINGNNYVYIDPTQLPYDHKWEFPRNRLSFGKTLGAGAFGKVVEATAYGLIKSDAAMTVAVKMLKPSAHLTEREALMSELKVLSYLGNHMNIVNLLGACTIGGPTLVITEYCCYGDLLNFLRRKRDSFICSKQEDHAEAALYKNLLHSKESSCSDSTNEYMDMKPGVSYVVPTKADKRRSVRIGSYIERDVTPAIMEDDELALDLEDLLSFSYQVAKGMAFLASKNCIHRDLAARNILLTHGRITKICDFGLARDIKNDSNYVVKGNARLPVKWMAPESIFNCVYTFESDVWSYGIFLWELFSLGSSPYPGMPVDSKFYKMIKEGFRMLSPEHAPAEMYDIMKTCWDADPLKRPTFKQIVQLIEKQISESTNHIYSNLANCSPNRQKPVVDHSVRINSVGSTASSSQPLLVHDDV

COc1cc2ncnc(N[C@H](C)c3cccc4ccccc34)c2cc1OC
Activity [1]: 93% | Activity [2]: 73% | Activity [3]: 99% | Activity [4]: 91% | Activity [5]: 100% | Activity [6]: 88% | Activity [7]: 98% | Activity [8]: 95% | Activity [9]: 100% | Activity [10]: 87% | Activity [11]: 9.3%

COc1cc2nc(C)nc(N[C@H](C)c3cccc(-c4cn[nH]c4)c3)c2cc1OC
Activity [1]: 100% | Activity [2]: 100% | Activity [3]: 94% | Activity [4]: 69% | Activity [5]: 82% | Activity [6]: 97% | Activity [7]: 54% | Activity [8]: 62% | Activity [9]: 76% | Activity [10]: 82% | Activity [11]: 93%

— ChEMBL document CHEMBL5678818, “Discovery of potent SOS1 inhibitors that block RAS activation via disruption of the RAS-SOS1 interaction” (Proc Natl Acad Sci U S A, 2019)
